Reference: publication PMC8280143, “A novel dephosphorylation targeting chimera selectively promoting tau removal in tauopathies” (Signal Transduction and Targeted Therapy, 2021)
Entries after “also recorded” stand apart in the source; their conditions may differ.

Tests used:
[1] = test system: human tau; assay: Fluorescence polarization competing assay, tau; format: binding; settings: 2.5 μM tau, 0.1 μM FITC-labeled DEPTAC; 37 °C, 30 min
Description: Purified human tau and PP2A-Bα (PPP2R1A) were obtained from AtaGenix (Wuhan, China), and concentrated using ultrafiltration tubes (Beyotime). In basic binding assays, tau or PP2A-Bα was aliquoted into serial dilutions with a buffer containing 20 mM Tris-HCl, 150 mM NaCl, and 0.5 mM 1,4-Dithiothreitol (pH 7.4), and incubated with 0.1 μM FITC-labeled DEPTAC, FITC-labeled control peptide and FITC (9:1 vol/vol), respectively, in a black 384-well plates (Corning) under 37 °C for 30 min. In competition binding assays, a mixture of 2.5 μM tau or PP2A-Bα and 0.1 μM FITC-labeled DEPTAC were incubated with increasing amounts of unlabeled-DEPTAC under 37 °C for 30 min. Fluorescence intensity was measured by a Biotek Synergy 2 microplate reader with the wavelengths of 480 nm (60) (Ex)/560 nm (40) (Em). The polarization measurements were corrected for background contributions to the measured intensity by subtracting the parallel and perpendicular intensity readings by the vehicle-only wells from the intensity readings for each data point. Fluorescence polarization (P) was calculated by the formula P = (I║ − I┴) / (I║ + I┴), where I║ was the intensity of emitted light polarized parallel to the excitation light, and I┴ was the intensity of emitted light polarized perpendicular to the excitation light.

[2] = test system: human tau N-terminal 1–368 fragment (hTau-N368); assay: Hippocampal phosphorylated and total tau in dox-treated Tau368 mice; format: in vivo, mouse
Description: Mice weighting 20–30 g were anesthetized with 1% pentobarbital sodium (35 mg/kg), and fixed in a stereotaxic instrument (RWD). The scalp was sterilized with iodophors and 75% ethanol, and incised along the skull midline. Holes were drilled. Adeno-associated virus or DEPTAC was injected into the dorsal DG (posterior 1.9 mm, lateral ±1.1 mm from the bregma, ventral −2.0 from the skull) or lateral ventricle (posterior 0.22 mm, lateral ±1.0 mm from the bregma, ventral −2.5 from the skull), respectively, using an automatic microinjection system (World Precision Instruments, USA) at a rate of 0.05 μL/min. The needle syringe was left in place for 5 min before withdrawal. The skin was sutured and sterilized with iodophors. Mice were placed on thermos tank for analepsia.
(§1) For 2-month male C57BL/6 mice, 10 mM FITC-labeled or unlabeled-DEPTAC were directly injected through the tail vein or lateral ventricle for the evaluation of BBB-penetrability. For 9-month 3×Tg AD mice or Tau368 (20–30 g body weight), unlabeled-DEPTAC (5 mM, 1 μL for each time) was delivered for once into the lateral ventricle through direct stereotaxic injection, or repeatedly administrated through guiding cannulas (RWD, Shenzhen, China) implanted into the lateral ventricle once every 3 days for a consecutive month to test its dephosphorylation efficiency. Mice were restricted in a custom designed device and stayed awake during drug administration, and sacrificed at 24 h post the single or last DEPTAC administration.
Cultured cells or hippocampus tissues were collected on ice, and homogenized with RIPA lysis buffer containing 50 mM Tris-HCl, 100 mM NaCl, 1% Triton X-100, 5 mM EDTA, and 1:100 PMSF, and then centrifuged at 12,000 × g for 20 min. The supernatant was collected for the analysis of soluble proteins. In some experiments, the pellets were further incubated with 8% SDS buffer at 37 °C and then ultrasound for 60 times to reach a complete resuspension for the analysis of insoluble tau. Protein concentration was measured through BCA assays (Thermo Fisher). Equal amount of protein from each sample were separated in SDS-PAGE gels, and then transferred onto nitrocellulose or 0.22 μm polyvinylidene fluoride membranes (Merck Millipore). The membranes were blocked with 5% BSA, and incubated in turn with primary and horseradish peroxidase-conjugated secondary antibodies: pS199-Tau (44734G, Invitrogen, 1:2000), pT205-Tau (11108-1, Signalway, 1:2000), pS396-Tau (11102, Signalway, 1:2000), pS404-Tau (11112, Signalway, 1:2000), AT8 (MN1020, Thermo Fisher, 1:1000), Tau5 (ab80579, Abcam, 1:1000), Tau46 (T9450, Sigma, 1:1000), PP2A-Bα (4953, Cell signaling, 1:1000), Phospho-Ser/Thr (ab17464, Abcam1:1000), Ubiquitin (ab7254, Abcam, 1:1000), MAP2 (AB5622, Millipore, 1:2000), hTau-N368 (a generous gift from Prof. Keqiang Ye, Emory University School of Medicine, 1:1000), DEPTAC (developed by Daian Biotechnology, Wuhan, China, 1:500), β-actin (ab6276, Abcam, 1:2000). HRP-conjugated goat anti-rabbit IgG (A0208, Beyotime, 1:3000), HRP-conjugated goat anti-mouse IgG (A0216, Beyotime, 1:3000). Blots were visualized using ECL luminol reagent (P0018FS, Beyotime), and quantified using ImageJ software.

[3] = test system: neurons; assay: Neuron penetrability in vivo; design: species or system mouse; settings: Supplementary Fig. S1a; 10 mM FITC-labeled or unlabeled-DEPTAC, C57BL/6 mice
Description: as §1

[4] = test system: dentate granular cells of Tau368 mice; assay: Sholl analysis of dendrite complexity; format: in vivo, mouse
Description: as §1
A total volume of 0.3 μL mixture of AAV-CaMKIIα-Cre (5.21E+07) and AAV-EF1α-DIO-mCherry (3.24E+12) (1:1 vol/vol) was stereotaxically injected into the dDG of Tau368 mice 1 month following the beginning of dox or normal drinking water administration. Dox was stopped 1-month post AAVs injection, and DEPTAC were delivered through lateral ventricle for a consecutive month. Behavioral tests were performed after the DEPTAC administration, and mice were killed after behavioral tests. Hippocampal sections of 60 μm were obtained, and fluorescent images were taken by a two-photon laser-scanning confocal microscope (LSM710, Zeiss). The dendrite complexity of granular cells in the dorsal dentate gyrus was evaluated by Sholl analysis using Simple Neurite Tracer plugin and ImageJ (Fiji) software. Dendrite spine density and the averaged area of mossy fiber punctas were evaluated using ImageJ by an experimenter blinded from mice groupings. It should be noted that the fluorescence-labeled mossy fibers assembled densely in the CA3 subset, the main target area of mossy fiber axon terminals, making it difficult to accurately measure the puncta areas (data not shown). Therefore, we chose the hilus of DG subset for the measurement, which we believe should be also valid to indicate the axon plasticity of DG granular cells.

[5] = DEPTAC for a consecutive month after stopping dox, **p < 0.01, n = 3 mice
[6] = dox kept on, DEPTAC i.c.v. by guiding cannula once every three days for a consecutive month, 10 μg total protein, *p < 0.05, n = 3–4
[7] = hippocampus of Tau368 mice, 24 h of post-DEPTAC administration

Question: What does the source list for “(1) YQQYQDATADEQG, originates from the porcine β-tubulin 422–434 for recognizing and binding tau proteins.[5],[6] (2) GSGS, a linker for increasing the flexibility of the peptide.[15] (3) KKVAVVRTPPKSP, for recruiting PP2A-Bα,[16] and (4) RRRRRRRR [DEPTAC, DEPhosphorylation TArgeting Chimera; 38 amino acid residues, C185H314N72O56]”?
Answer: reversal of FITC-DEPTAC/tau polarization by increased amount of unlabeled-DEPTAC [1]: both were reversed; hippocampal phospho-tau after stopping the dox [2, 5]: reduced; also recorded: downregulated; hippocampal total tau after stopping the dox [2, 5]: reduced; also recorded: downregulated; degree of tau reduction by DEPTAC ([2]; discussion, compared with tau knock-out or siRNA knock-down): far less than tau knock-out or siRNA-mediated knock-down; hippocampal phospho-tau, dox kept on [2, 6]: significantly reduced; also recorded: effectively facilitated the dephosphorylation; hippocampal total tau, dox kept on [2, 6]: significantly reduced; also recorded: effectively facilitated the dephosphorylation as well as the degradation of tau; hippocampal phosphorylated tau ([2]; dox-treated Tau368 mice, 5 mM, i.c.v., for a consecutive month / for once, 12–72 h post injection, n = 3–4): effective in reducing; also recorded: reduced phosphorylated and total tau prominently; RIPA lysis buffer-insoluble tau [2, 7]: tend to be decreased; RIPA lysis buffer-soluble tau [2, 7]: tend to be decreased; neuron penetrability in vivo [3]: high neuron penetrability; dendrite complexity, NW-treated ([4]; NW-treated Tau368 mice, n = 3~5 mice, 12~22 neurons): did not statistically change; also recorded: no statistically significant change; neurite differentiation in control mice ([4]; control mice without human tau accumulation): did not statistically change; dendrite complexity, dox-treated ([4]; dox-treated Tau368 mice, n = 3~5 mice, 12~22 neurons): did not statistically change; also recorded: no statistically significant change
